Source: patent publication US20050163711A1, “Intra-dermal delivery of biologically active agents” (Becton, Dickinson and Company, Inc., priority 2003, published 2005)

Key:
[1] = Dye staining and tracing in vivo after intradermal injection; set-up: species or system Balb/c mice; details: mouse, ID, 34 gauge needle, 1% solution, one hour post injection
Protocol: MATERIALS AND METHODS. In Vivo cell staining and all the following experiments were conducted under an approved IACUC protocol. Balb/c mice (Charles River Laboratories, Raleigh, N.C.), 6-8 weeks old, were anesthetized (IsoFlurane, Abbott Laboratories, Chicago, Ill.) and injected intradermally with 1% Evans Blue dye solution using a standard syringe with 34 gauge needle. The mice were dissected one hour post injection and the location of the dye observed. The mouse, as the human, has several main groups of easily identified draining lymph nodes.

[2] = Dye staining and tracing in vivo: comparison of SC and ID delivery; set-up: species or system Yorkshire swine; details: swine; for location of dye on dissection: 10 minutes post injection
Protocol: MATERIALS AND METHODS. In vivo cell staining and all the following experiments were conducted under an approved IACUC protocol. […] Visual observation made during ID injection noted immediate transport of the dye from the site of injection moving toward the regional draining lymph node, the inguinal node. This transport was visible through the skin and was extremely rapid, traversing tissues at velocities of up to 10 cm per second. […] The swine was euthanized and dissected 10 minutes post injection and the location of the dye observed.

[3] = ID administration of 200 uL dye with 34G, 1 mm needle/catheter, transport to inguinal lymph node; type: in vivo, Yorkshire swine; details: swine, manual ID above the right hoof, 200 uls
Protocol: MATERIALS AND METHODS. The following experiments were conducted under an approved IACUC protocol. Yorkshire Swine (Charles River Laboratories, Raleigh, N.C.), approximately 20-25 kg, were anesthetized (Rompun 4 mg/kg, Xylazine 2 mg/kg, and Ketamine 2 mg/kg and maintained on 2% isoflurane) and injected intradermally with 1% Evans Blue (EB) dye solution at various volumes and needle penetration depths using a standard syringe and a 34 gauge needle. Injection volume and rate was controlled manually or with a Harvard Apparatus PhD 2000 programmable pump.
The skin at the injection site, including the injected material and surrounding tissue, was immediately excised after the injection. The tissue was flash frozen on dry ice/2-methylbutane and then stored at −80° C. until sectioning. The frozen tissue was cut longitudinally through the needle insertion point and immediately examined microscopically and photographed. Microscopic examinations were conducted using a Nikon SMZ-U dissecting scope with a Nikon FX-35PX 35 mm camera mount. Alternatively, after injection, the swine was euthanized and the tissue resected and photographed.
One anesthetized Yorkshire swine was manually injected intradermally above the right hoof with 200 uls of EB through a 34G, 1 mm needle/catheter.

[4] = Yorkshire, swine, in vivo
Protocol: Yorkshire swine (Charles River Laboratories, Raleigh, N.C.), 20-25 kg, were anesthetized (telazol/xylazine/ketamine mix (35, 17.5, 17.5 mg/kg respectively, followed by continued isoflurane inhalation) and injected intradermally (90° angle) using a 34G, 1 mm needle/catheter and a standard syringe. IV injections were performed using a 27G, half-inch needle and delivered through a venous catheter. All recovered swine were intubated and hydrated throughout the procedure.
Dye Injections: Yorkshire swine were injected ID as described above, with 200 uls of 250 ug/ml indocyanine green (ICG) in sterile water (Fluka Chemical Corp., Milwaukee, Wis.). Injections sites included the right hind leg, and at the first and second teat of the left mammary chain. Additional injections of 200 μls and 75 μls were performed at 80 ug/ml indocyanine green in order to determine lymphatic flow rates. […]
Image Acquisition: Near infrared images were obtained using a tungsten lamp (Dolan-Jenner, Lawrence, Mass.) fitted with a 750 nm excitation filter (Omega Optical, Brattleboro, Vt.), a CCD camera (Kowa Co., Supercircuits CCTV camera model b/w Hi-Res ExVision) fitted with a 790 nm long pass emission filter (Omega Optical) and a Canon ZR-20 mini-DV camcorder. […] Speed of infusion through the lymphatic vessels determined from film footage.

Row | staining of superficial inguinal lymph nodes with the dye [1] | velocity of dye transport from injection site toward inguinal node ([2]; ID, 34-gauge needle 1 mm, 1% solution, visual observation through skin) | transport of dye, visual observation ([2]; subcutaneous, 25 gauge needle, approximate depth 7 mm) | time for dye to travel from site of injection to draining inguinal lymph node [3] | rate of travel of dye to draining inguinal lymph node ([3]; 34G 1 mm needle/catheter) [cm/s] | dye travel speed calculated for one injection [4] [cm/s] | SMILES | location of dye on dissection ([2]; ID injected) | location of dye on dissection ([2]; subcutaneous injected)
1 | highly stained | up to 10 cm per second | no apparent transport of the dye | Within seconds | ~20 | – | Cc1cc(-c2ccc(/N=N/c3ccc4c(S(=O)(=O)O)cc(S(=O)(=O)O)c(N)c4c3O)c(C)c2)ccc1/N=N/c1ccc2c(S(=O)(=O)O)cc(S(=O)(=O)O)c(N)c2c1O [Evans Blue] | moved rapidly through the lymphatic vasculature to the inguinal node | remained at the site of injection and was not transported to the inguinal node
2 | – | – | – | – | – | 7 | CC1(C)C(/C=C/C=C/C=C/C=C2\N(CCCCS(=O)(=O)O)c3ccc4ccccc4c3C2(C)C)=[N+](CCCCS(=O)(=O)[O-])c2ccc3ccccc3c21 [ICG, indocyanine green] | – | –
